Experimental data from patent US20220402862A1 (Intellia Therapeutics, Inc., priority 2019, published 2022).
Values joined by “and” are separate entries in the source; they are usually repeats but may differ in a detail not shown here. Identical values can stand only once.

Columns and labels:
[1] = Dynamic light scattering of LNPs: Z-average diameter, number average diameter, PDI; type: physicochemical; settings: LNP
Procedure, shortened: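 Values reported are the Z-average (intensity-weighted mean size), the number-average diameter and the PDI (spread of sizes, 0 = fully uniform). All three came from dynamic light scattering of LNP preparations after dilution in PBS.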

mouse TTR gene = assay: In vivo editing in mouse liver, sgRNA targeting TTR (G282 or G502), % indel by NGS; design: species or system CD-1 female mice
Protocol: CD-1 female mice ranging from 6-10 weeks of age were used in each study. Animals were weighed and grouped according to body weight for preparing dosing solutions based on group average weight. LNPs were dosed via the lateral tail vein in a volume of 0.2 mL per animal (approximately 10 mL per kilogram body weight). The animals were periodically observed for adverse effects for at least 24 hours post dose. For studies measuring in vivo editing in liver, CD-1 female mice were dosed at 0.1 mg/kg unless otherwise noted. Animals were euthanized at 6 or 7 days by ex sanguination via cardiac puncture under isoflurane anesthesia. Liver tissue was collected from each animal for DNA extraction and analysis. Blood was collected into serum separator tubes or into tubes containing buffered sodium citrate for plasma as described herein. Cohorts of mice were measured for editing by Next-Generation Sequencing (NGS).
In brief, to quantitatively determine the efficiency of editing at the target location in the genome, genomic DNA was isolated and deep sequencing was utilized to identify the presence of insertions and deletions introduced by gene editing.
PCR primers were designed around the target site (e.g., within B2M), and the genomic area of interest was amplified. Additional PCR was performed according to the manufacturer's protocols (Illumina) to add the necessary chemistry for sequencing. The amplicons were sequenced on an Illumina MiSeq instrument. The reads were aligned to the mouse or rat reference genome (e.g., GRCm38) after eliminating those having low quality scores. The resulting files containing the reads were mapped to the reference genome (BAM files), where reads that overlapped the target region of interest were selected and the number of wild type reads versus the number of reads which contain an insertion, substitution, or deletion was calculated.
The editing percentage (e.g., the “indel efficiency” or “percent indels”) was defined as the total number of sequence reads with insertions or deletions over the total number of sequence reads, including wild type.
We assessed in vivo editing efficiency for materials delivered with formulations including various amine lipid compounds. Editing was measured using either G282 (SEQ ID No: 1) which targets the mouse TTR gene or G650 (SEQ ID No. 2) which targets the mouse B2M gene. Lipids described above were assessed for efficacy through in vivo editing experiments. LNPs were formulated at a 1:1 or 1:1.3 w/w ratio of sgRNA to Cas9 mRNA, and at an N/P ratio of about 6. Molar concentrations of lipids in the lipid component of the LNPs are used at mol % amine lipid/DSPC/cholesterol/PEG-2k-DMG of 50/9/38/3. The final LNPs were characterized to determine the encapsulation efficiency, polydispersity index, and average particle size according to the analytical methods provided above. Analysis of average particle size, polydispersity (PDI), total RNA content and encapsulation efficiency of RNA are shown in Table 2.
To assess whether the editing was dose responsive, experiments were performed in vivo at various LNP dose levels. Cas9 mRNA of Example 120 was formulated as LNPs with an sgRNA targeting TTR (G282, SEQ ID NO: 1; or G502, SEQ ID NO: 4).
We assessed in vivo delivery by measuring editing efficiency for materials delivered with formulations that included various amine lipid compounds. Cas9 mRNA (SEQ ID NO: 6) was formulated as LNPs with an sgRNA targetting the TTR mouse gene (SEQ ID NO: 4). LNPs were formulated at a 1:2 w/w ratio of sgRNA to Cas9 mRNA, and at an N/P ratio of about 6. Molar concentrations of lipids in the lipid component of the LNPs are used at mol % amine lipid/DSPC/cholesterol/PEG-2k-DMG of 50/9/38/3. The final LNPs compositions were characterized and analyzed as described in Example 120. Analysis of average particle size, polydispersity (PDI), total RNA content and encapsulation efficiency of RNA are shown in Table 6.

[2] = RNA encapsulation efficiency of LNPs (Ribogreen fluorescence assay); type: physicochemical; settings: LNP; for Encapsulation (%): sg:mRNA 1:1, N/P about 6, amine lipid/DSPC/cholesterol/PEG-2k-DMG 50/9/38/3, Table 2, Experiments 2-20
Procedure, shortened: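 Encapsulation efficiency is (Total RNA − Free RNA)/Total RNA. Free RNA was quantified by RiboGreen fluorescence (488/525 nm, ~10 min, RT, dark) in plain TE buffer; total RNA was quantified after LNP lysis with 0.2% Triton X-100, both against RNA standard curves.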

Transthyretin (TTR) = assay: Serum TTR ELISA in mice after LNP dosing; type: in vivo, CD-1 female mice
Procedure, shortened: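 Serum mouse TTR was quantified by ELISA at 10,000-fold dilution for 0.1 mg/kg and 10,000/2,500-fold for 0.3 mg/kg. Samples came from female CD-1 mice (6–10 weeks) killed 6 or 7 days after a single intravenous LNP dose, usually 0.1 mg/kg.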

[3] = pKa measurement of unformulated amine lipid (fluorescence, method of Jayaraman et al.); type: physicochemical; settings: 100 μM in 0.1 M phosphate buffer, pH 2.0-12.0
Protocol: The pKa of each amine lipid was determined according to the method in Jayaraman, et al. (Angewandte Chemie, 2012) with the following adaptations. […] Lipid was diluted to 100 μM in 0.1 M phosphate buffer (Boston Bioproducts) where the pH ranged from 2.0-12.0. Fluorescence intensity was measured using excitation and emission wavelengths of 321 nm and 448 nm.

[4] = sg:mRNA 1:1, N/P about 6, 50/9/38/3, Table 2, Experiments 2-20
[5] = sg:mRNA 1:2, N/P 6.0, 50/9/38/3, Table 4, Experiment 105
[6] = LNP i.v. 0.03 mg/kg, guide G502, Experiment 105
[7] = LNP i.v. 0.1 mg/kg, guide G502, Experiment 105
[8] = mouse, LNP i.v. 0.03 mg/kg, guide G502, Experiment 105
[9] = mouse, LNP i.v. 0.03 mg/kg, guide G502, Experiment 105, relative to TSS control
[10] = mouse, LNP i.v. 0.1 mg/kg, guide G502, Experiment 105
[11] = mouse, LNP i.v. 0.1 mg/kg, guide G502, Experiment 105, relative to TSS control
[12] = sg:mRNA 1:1, N/P 6.0, 50/9/38/3, Table 4, Experiments 101-104
[13] = sg:mRNA 1:2, N/P about 6, 50/9/38/3, Table 6, Experiments 106-107
[14] = guide G502, i.v. 0.1 mg/kg, sgRNA:Cas9 mRNA 1:2 w/w, experiments 106, 107
[15] = sg:mRNA 1:2, N/P about 6, 50/9/38/3, TTR sgRNA (SEQ ID NO: 4), Table 6, Experiments 106-107
[16] = mouse serum TTR relative to TSS control, guide G502, i.v. 0.1 mg/kg
[17] = mouse serum, guide G502, i.v. 0.1 mg/kg

| Structure (SMILES) | Number mean (nm) [1, 4] | Z-avg (nm) [1, 4] | Encapsulation (%) [2] | pKa [3] | Number mean (nm) [1, 13] | PDI [1, 13] | Z-avg (nm) [1, 13] | % E [2, 15] | Editing Mean % Indel (mouse TTR gene; [14]) | Serum TTR % TSS (Transthyretin (TTR); [16]) | Serum TTR (Transthyretin (TTR); [17]) | other results |
| --- | --- | --- | --- | --- | --- | --- | --- | --- | --- | --- | --- | --- |
| CCCCC/C=C\C/C=C\CCCCCCCC(=O)OCC(COC(=O)CCC(OCCCCCCCC)OCCCCCCCC)COC(=O)OCCC1CCCN1C (centres unmarked) [Compound 24, 3-((4,4-bis(octyloxy)butanoyl)oxy)-2-((((2-(1-methylpyrrolidin-2-yl)ethoxy)carbonyl)oxy)methyl)propyl (9Z,12Z)-octadeca-9,12-dienoate] | 61.34 nm and 66.88 nm and 63.16 nm | 76.82 nm and 83.92 nm and 77.24 nm | 98% and 97% | – | – | – | – | – | – | – | – | PDI [1, 4]: 0.027 and 0.033 and 0.025; Number mean (nm) [1, 5]: 72.95 nm; PDI [1, 5]: 0.029; Z-avg (nm) [1, 5]: 88.39 nm; Editing Mean % Indel (mouse TTR gene; [6]): 11.34%; Editing Mean % Indel (mouse TTR gene; [7]): 40.54%; % E [2, 5]: 99%; Serum TTR % TSS (Transthyretin (TTR); mouse serum TTR relative to TSS control, guide G282 experiments): 46%; Serum TTR (Transthyretin (TTR); mouse serum, guide G282 experiments, ELISA): 397 µg/mL; Serum TTR (Transthyretin (TTR); [8]): 772 µg/mL; Serum TTR % TSS (Transthyretin (TTR); [9]): 70%; Serum TTR (Transthyretin (TTR); [10]): 420 µg/mL; Serum TTR % TSS (Transthyretin (TTR); [11]): 38% |
| CCCCC/C=C\C/C=C\CCCCCCCC(=O)OCC(COC(=O)CCC(OCCCCCCCC)OCCCCCCCC)COC(=O)C1CCN(C)CC1 (centres unmarked) [Compound 31, 3-((4,4-bis(octyloxy)butanoyl)oxy)-2-((((9Z,12Z)-octadeca-9,12-dienoyl)oxy)methyl)propyl 1-methylpiperidine-4-carboxylate] | 58.67 nm and 59.35 nm | 75.11 nm and 73.65 nm | 98% and 99% | 7.31 | – | – | – | – | – | – | – | Number mean (nm) [1, 12]: 61 nm; PDI [1, 12]: 0.04; Z-avg (nm) [1, 12]: 76 nm; Editing Mean % Indel (mouse TTR gene; LNP i.v. 0.1 mg/kg, guide G282, Experiments 101-103): 13.5%; Editing Mean % Indel (mouse TTR gene; LNP i.v. 0.3 mg/kg, guide G282, Experiments 101-103): 50.7%; % E [2, 12]: 99%; Serum TTR (Transthyretin (TTR); mouse, LNP i.v. 0.1 mg/kg, guide G282, Experiments 101-103): 976 µg/mL; Serum TTR % TSS (Transthyretin (TTR); mouse, LNP i.v. 0.1 mg/kg, guide G282, Experiments 101-103, relative to TSS control): 71%; Serum TTR (Transthyretin (TTR); mouse, LNP i.v. 0.3 mg/kg, guide G282, Experiments 101-103): 226 µg/mL; Serum TTR % TSS (Transthyretin (TTR); mouse, LNP i.v. 0.3 mg/kg, guide G282, Experiments 101-103, relative to TSS control): 17% |
| CCCCC/C=C\C/C=C\CCCCCCCC(=O)OCC(COC(=O)CCC(OCCCCCCCC)OCCCCCCCC)COC(=O)NCCN1CCCCC1 (centres unmarked) [Compound 101, 3-((4,4-bis(octyloxy)butanoyl)oxy)-2-((((2-(piperidin-1-yl)ethyl)carbamoyl)oxy)methyl)propyl (9Z,12Z)-octadeca-9,12-dienoate] | – | – | – | 6.4 | 58 nm | 0.04 | 73 nm | 99% | 25.9% | 56.1% | 655.8 µg/mL | – |
| CCCCCCCCOC(CCC(=O)OCC(COC(=O)CCCCCCCCCCC(=O)OCCCCCCC)COC(=O)OCCCN(CC)CC)OCCCCCCCC (centres unmarked) [Compound 61, 1-(3-((4,4-bis(octyloxy)butanoyl)oxy)-2-((((3-(diethylamino)propoxy)carbonyl)oxy)methyl)propyl) 12-heptyl dodecanedioate] | 72 nm | 87.26 nm | 97% | 6.29 | – | – | – | – | – | – | – | PDI [1, 4]: 0.018; Number mean (nm) [1, 5]: 79.73 nm; PDI [1, 5]: 0.033; Z-avg (nm) [1, 5]: 99.25 nm; Editing Mean % Indel (mouse TTR gene; [6]): 7.78%; Editing Mean % Indel (mouse TTR gene; [7]): 36.06%; % E [2, 5]: 98%; Serum TTR (Transthyretin (TTR); [8]): 711 µg/mL; Serum TTR % TSS (Transthyretin (TTR); [9]): 65%; Serum TTR (Transthyretin (TTR); [10]): 472 µg/mL; Serum TTR % TSS (Transthyretin (TTR); [11]): 43% |

Now from value to compound, other results behind:

| Number mean (nm) [1, 4] | Z-avg (nm) [1, 4] | Encapsulation (%) [2] | pKa [3] | Number mean (nm) [1, 13] | PDI [1, 13] | Z-avg (nm) [1, 13] | % E [2, 15] | Structure (SMILES) | Editing Mean % Indel (mouse TTR gene; [14]) | Serum TTR % TSS (Transthyretin (TTR); [16]) | Serum TTR (Transthyretin (TTR); [17]) | other results |
| --- | --- | --- | --- | --- | --- | --- | --- | --- | --- | --- | --- | --- |
| – | – | – | 6.04 | 74 nm | 0 | 90 nm | 99% | CC/C=C\C/C=C\C/C=C\CCCCCCCC(=O)OCC(COC(=O)CCC(OCCCCCCCC)OCCCCCCCC)COC(=O)OCCCN(CC)CC (centres unmarked) [Compound 116, 3-((4,4-bis(octyloxy)butanoyl)oxy)-2-((((3-(diethylamino)propoxy)carbonyl)oxy)methyl)propyl (9Z,12Z,15Z)-octadeca-9,12,15-trienoate] | 34.48% | 51.3% | 567.09 µg/mL | – |
| – | – | – | 6.13 | 72 nm | 0.02 | 87 nm | 96% | CCCCCCCCCCCCCCCCCC(=O)OCC(COC(=O)CCC(OCCCCCCCC)OCCCCCCCC)COC(=O)OCCCN(CC)CC (centres unmarked) [Compound 114, 3-((4,4-bis(octyloxy)butanoyl)oxy)-2-((((3-(diethylamino)propoxy)carbonyl)oxy)methyl)propyl stearate] | 18.04% | 88.4% | 978.01 µg/mL | – |
| – | – | – | 7 | 50 nm | 0.05 | 65 nm | 99% | CCCCC/C=C\C/C=C\CCCCCCCC(=O)OCC(COC(=O)CCC(OCCCCCCCC)OCCCCCCCC)COC(=O)NCCN1CCCCCC1 (centres unmarked) [Compound 103, 3-(((2-(azepan-1-yl)ethyl)carbamoyl)oxy)-2-(((4,4-bis(octyloxy)butanoyl)oxy)methyl)propyl (9Z,12Z)-octadeca-9,12-dienoate] | 4.2% | 89.3% | 1043.8 µg/mL | – |
